# Experimental data reported in patent publication US20250090576A1, “METHODS FOR TREATING NONTUBERCULOUS MYCOBACTERIA DISEASES” (Microbion Corporation, priority 2022, published 2025).
# Columns and labels:
# [1] = test system: CF patient strain 00133 in THP-1 macrophages; test: Mycobacterial survival (CFU) in infected THP-1 macrophages; assay type: cell-based, M. avium; conditions: amikacin-resistant CF patient strain 00133; each of the BisEDT formulations; 4 and 7 days
# Protocol: (§1) THP-1 macrophages were differentiated with 50 ng/ml PMA for 24 hours, followed by 24 hours in media prior to infection. Differentiated THP-1 macrophages were either infected with M. avium strains or M. abscessus strains for 1 hour with an multiplicity of infection (MOI) of 5 or uninfected. Cells were washed twice, followed by 1 hour of antibiotic treatment with 200 μg/ml of amikacin to remove extracellular bacteria. After the antibiotic step, cells were washed once more and BisEDT (BIZ) or amikacin was added once to selected wells (see in vitro doses below).
# (§2) The treatments included: vehicle, amikacin, Soluble BisEDT (S Biz), Insoluble BisEDT (I Biz), and amikacin+BisEDT. The time points for sample preparation were 72 h for M. abscessus strains and 4- and 7-days post infection for M. avium strains. At the indicated timepoints cell media was removed and replaced with 400 ul of 0.1% triton x-100 in H2O for lysis. Wells were pipetted 25 times to disrupt cells then diluted and plated for CFU enumeration.
# [2] = test system: M. abscessus strain 19977; test: Chronic M. abscessus lung infection in SCID/Beige mice, inhalation treatment 28 days; assay type: in vivo; conditions: for CFU count in lung homogenates, effect in words: inhaled
# Protocol: A total of sixty female SCID/Beige mice between 6-8 weeks of age were used. Mice were placed up to 4 animals per cage and allowed 1 week of acclimation prior to infection.
# Inoculums of M. abscessus strain 19977 (MAB) used in this study were made from highly virulent frozen stocks with low passage numbers. Bacteria were allowed to grow to log phase after 4 days on 7H10 media agar plates at 37° C. Once confluent, inoculums were made by suspending bacteria at 10^9 in Hank's balanced salt solution (HBSS) as determined by optical density (O.D.) and further quantified by serial dilution to determine the CFU/mL of suspension. At this higher concentration of bacteria, only 20 μL of inoculum was necessary to deposit […] bacteria per mouse.
# On the day of infection mice were anesthetized with isoflurane by the drop jar method. Mice were scruffed in a standard one-handed grip and the nose of the mouse is held of a tube containing gauze containing a small amount of isoflurane. Mice were monitored for breathing and once rapid breaths have slowed down initially the mouse is removed from direct anesthesia and 20 μL of bacterial suspension was deposited on the left nostril. The mice then slowly breath in the droplet. Each mouse was then held in hand until complete consciousness was obtained and then the mouse was replaced into its home cage. After infection was initiated, 3 weeks were allowed to pass in order to allow the bacteria to establish a chronic lung pathology for eventual treatment.
# After establishing each infection, 12 mice were euthanized the day before treatment began to determine the baseline bacterial load. Mice were euthanized using CO2 in accordance with the recommendations of the Guide for the Care and Use of Laboratory Animals (NRC 2011). Lungs and spleens were collected and homogenized then serial diluted for CFU enumeration.
# A nose-only inhalation exposure chamber from CH technologies was used for this experiment. Mice were split into four treatment groups, Vehicle (buffer containing no BisEDT), amikacin (100 μg/kg/day), BisEDT “low” (200 μg/kg/day), and BisEDT “high” (1000 μg/kg/day). Each treatment group consisted of 12 mice. Ten of these mice were used for CFU determination and two mice are used for histology/pathology/lung pharmacokinetics. Treatment was conducted 6 days a week over the course of 28 days total. To create the correct level of deposited dose of each drug tested, 10 mL of test article were made. Amikacin in HBSS at 20 mg/mL was made and stored at 4° C. until needed. […]
# After 28 days of treatment with BisEDT, animals were euthanized by Co2 and secondary cardiac puncture to collect whole blood for quantitation of BisEDT concentration. […] CFUs were determined after serial dilution. […]
# [3] = test system: M. abscessus isolates from murine lung homogenates; test: MIC analysis of select bacterial isolates from murine lung homogenates; assay type: cell-based; conditions: isolates from treated mouse lungs
# [4] = test system: M. abscessus strain 19977 in THP-1 macrophages; test: Mycobacterial survival (CFU) in infected THP-1 macrophages; assay type: cell-based; conditions: after 3 days, drugs at MIC
# Protocol: as §1, §2
# [5] = test system: M. abscessus cystic fibrosis patient strain 00703 in THP-1 macrophages; test: as above; assay type: cell-based; conditions: CF patient strain 00703; after 3 days; drugs at MIC
# Protocol: as §1, §2
# [6] = test system: M. abscessus cystic fibrosis patient strain 01715 in THP-1 macrophages; test: as above; assay type: cell-based; conditions: CF patient strain 01715; after 3 days; drugs at MIC
# Protocol: as §1, §2
# [7] = test system: M. abscessus from lung homogenates; test: Resistance plating of treated mouse lung homogenates on agar with 1 μg/ml BisEDT; assay type: cell-based; conditions: mice treated with BisEDT for 28 days
# Protocol: Lung homogenates from the M. abscessus […] infection were thawed from frozen at 37° C. for 2 hours. To reduce the effect of the Dey-Engley deactivation buffer, mouse homogenates were diluted 1:10 in water before replating samples onto 7H10 agar plates containing 1 μg/ml BisEDT (MIC level). Once plated samples were incubated at 37° C. over 3 days and plate colonies were counted to determine CFUs of resistance.
# Colony forming units were compared from the initial plating with no BisEDT in the agar plates; to replating on agar plates containing 1 μg/mL BisEDT.
# [8] = test system: M. abscessus in THP-1 macrophages; test: TEM of infected THP-1 macrophages (mechanism of action); assay type: cell-based; conditions: 4 μg/ml insoluble BisEDT; 24 h and 48 h
# Protocol: (§3) THP-1 macrophages were differentiated with 50 ng/ml PMA for 24 hours, followed by 24 hours in media prior to infection. Differentiated THP-1 macrophages were infected with M. avium or M. abscessus for 1 hour with a multiplicity of infection (MOI) of 10. Infected cells were washed twice, followed by 1 hour of antibiotic treatment with 200 μg/ml of amikacin to remove extracellular bacteria. After the antibiotic step, cells were washed once more and 4 μg/ml insoluble BisEDT (BIZ) was added to selected wells. The treatments included: (1) untreated, (2) untreated+infected with MAH 104, (3) untreated+infected with M. abscessus, (4) BIZ treated, (5) BIZ treated+infected with MAH 104, and (6) BIZ treated+infected with M. abscessus. The time points for sample preparation were 24 h and 48 h.p.i. Cells were not washed prior to transmission electron microscopy TEM sample preparation, to preserve any extracellular bacteria that may have been present. Cells were detached by treatment with 5 mM EDTA for […], quenched with 1×HBSS, and suspended in fixative buffer with 2.5% glutaraldehyde, 1% formaldehyde, and 0.1 M sodium cacodylate for 24 hours prior to submission to the electron microscopy facility for processing. Samples were sectioned, dehydrated, and visualized by a FEIT Titan 80-200 TEM/STEM microscope.
# [9] = test system: M. avium (MAH 104) in THP-1 macrophages; test: as above; assay type: cell-based; conditions: 4 μg/ml insoluble BisEDT; 24 h and 48 h
# Protocol: as §3
# [10] = test system: three clinical isolates of M. avium in macrophages; test: Infected THP-1 macrophages, summary over strains; assay type: cell-based; conditions: three clinical isolates of M. avium incl. amikacin-resistant isolate
# Protocol: as §1, §2
# [11] = test system: M. abscessus strains in THP-1 macrophages; test: Infected THP-1 macrophages, summary over strains; assay type: cell-based; conditions: 3 days post-treatment
# Protocol: as §1, §2
# [12] = Earlier 28-day tolerability work on rats; conditions: 28 days, doses as high as
compound,measurement,setting,value
"C1C[S][Bi]([S]CC[S][Bi]2[S]CC[S]2)[S]1 [BisEDT, bismuth-1,2-ethanedithiol]","mycobacterial survival (CFU) in THP-1 macrophages, in words",[1],bacteriostatic effect
same,"lung CFU response, in words",[2]; 200 and 1000 μg/kg/day inhaled,dose-dependent response
same,tolerability in infected mice,"[2]; 200 and 1000 μg/kg/day inhaled, mice responsive, normal weight range",well tolerated
same,"CFU count in lung homogenates, effect in words","[2]; BisEDT high, 1000 μg/kg",bactericidal
same,"CFU count in lung homogenates, effect in words","[2]; BisEDT low, 200 μg/kg",bacteriostatic effect
same,"MIC of select isolates, in words",[3],did not show a change in resistance
same,"mycobacterial survival (CFU, bacterial load) in THP-1 macrophages, in words",[4],reduced bacterial loads in THP-1 cells
same,"mycobacterial survival (CFU, bacterial load) in THP-1 macrophages, in words",[5],greatly reduced bacterial load in macrophages
same,"mycobacterial survival (CFU, bacterial load) in THP-1 macrophages, in words",[6],greatly reduced bacterial load in macrophages
same,"development of resistance, in words",[7],little development of resistance
same,TEM observation on mycobacteria cell wall,[8],"loss of the integrity of the polar region initially, and the whole cell wall in a more advanced stage"
same,TEM observation on mycobacteria cell wall,[9],"loss of the integrity of the polar region initially, and the whole cell wall in a more advanced stage"
same,"effect in infected macrophages, in words",[10],bactericidal
same,"effect in infected macrophages, in words",[11],bactericidal by itself
same,"dose with high tolerability, without adverse effects",[12],59 µg/kg/day
